# According to paper PMC9015904 (ChemMedChem, 2022):
# Where two headings read alike, the source gives them in different places. Marks after values point to notes of the source that are not given here.
# Tests used:
# hKOR [1] = molecular target: T1, hKOR (Homo sapiens, UniProt P41145); assay: biochemical; format: binding
# hMOR [2] = molecular target: T2, hMOR (Homo sapiens, UniProt P35372); assay: biochemical; format: binding
# hKOR [3] = molecular target: T1, hKOR; assay: biochemical; format: biochemical
# hMOR [4] = molecular target: T2, hMOR; assay: GTPγS functional assay, MOR; format: biochemical
# male C57BL/6NHsd mice [5] = settings: mouse, in vivo
# male C57BL/6NHsd mice [6] = settings: mouse, in vivo; remark: listed apart in the source
# hDOR [7] = molecular target: T3, hDOR (Homo sapiens, UniProt P41143); assay: GTPγS functional assay, DOR; format: biochemical
# T3 sequence (P41143 whole entry): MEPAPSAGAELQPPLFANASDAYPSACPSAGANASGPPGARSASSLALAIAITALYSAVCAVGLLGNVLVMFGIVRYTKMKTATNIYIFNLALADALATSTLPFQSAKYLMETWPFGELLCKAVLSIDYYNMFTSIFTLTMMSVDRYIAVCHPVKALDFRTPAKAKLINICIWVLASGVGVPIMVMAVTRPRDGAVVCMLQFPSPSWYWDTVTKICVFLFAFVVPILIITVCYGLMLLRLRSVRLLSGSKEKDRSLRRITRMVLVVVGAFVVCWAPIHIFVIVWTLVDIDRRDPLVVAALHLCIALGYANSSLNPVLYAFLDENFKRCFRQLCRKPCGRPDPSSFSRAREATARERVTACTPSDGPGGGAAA
# male C57BL/6NHsd mice [8] = settings: mouse, in vivo; remark: listed apart in the source
# hDOR [9] = molecular target: T3, hDOR; assay: Competitive radioligand binding assay, DOR
# T2 sequence (P35372 whole entry): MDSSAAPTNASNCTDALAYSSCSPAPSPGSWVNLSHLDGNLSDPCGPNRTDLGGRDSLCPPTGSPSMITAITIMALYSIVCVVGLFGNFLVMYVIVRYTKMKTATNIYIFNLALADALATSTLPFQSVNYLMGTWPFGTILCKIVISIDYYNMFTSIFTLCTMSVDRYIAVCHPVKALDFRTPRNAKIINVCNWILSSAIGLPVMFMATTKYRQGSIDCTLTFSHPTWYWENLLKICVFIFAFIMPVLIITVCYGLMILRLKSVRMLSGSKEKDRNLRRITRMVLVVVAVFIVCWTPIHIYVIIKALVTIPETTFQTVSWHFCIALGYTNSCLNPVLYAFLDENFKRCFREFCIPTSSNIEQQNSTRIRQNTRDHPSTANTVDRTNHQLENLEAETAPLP
# T1 sequence (P41145 whole entry): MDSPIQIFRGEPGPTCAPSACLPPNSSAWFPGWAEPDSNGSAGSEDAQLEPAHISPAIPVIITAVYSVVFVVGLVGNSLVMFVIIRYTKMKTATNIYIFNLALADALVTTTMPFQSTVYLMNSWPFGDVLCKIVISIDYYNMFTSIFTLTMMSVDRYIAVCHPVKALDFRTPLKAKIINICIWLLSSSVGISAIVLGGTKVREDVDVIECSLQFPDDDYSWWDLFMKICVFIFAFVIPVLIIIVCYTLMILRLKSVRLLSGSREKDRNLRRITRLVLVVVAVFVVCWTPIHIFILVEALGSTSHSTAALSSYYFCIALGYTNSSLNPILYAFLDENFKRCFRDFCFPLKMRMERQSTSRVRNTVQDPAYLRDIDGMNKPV
SMILES,Kd (hKOR [1]),Kd (hMOR [2]),EC50 (hKOR [3]),Full or partial agonist (KOR) (hKOR [3]),EC50 (hMOR [4]),other results
"COC(=O)[C@@H]1C[C@H](OC(=O)C2=CCc3ccccc32)C(=O)[C@H]2[C@@]1(C)CC[C@H]1C(=O)O[C@H](c3ccoc3)C[C@]21C [Compound 1, Methyl-(2S,4aR,6aR,7R,9S,10aS,10bR)-9-((1H-indene-3-carbonyl)oxy)-2-(furan-3-yl)-6a,10b-dimethyl-4,10-dioxododecahydro-2H-benzo[f]isochromene-7-carboxylate]",62.3 nM,531 nM,1570 nM,1570 (548–4500)^[c],> 10000 nM,–
"COC(=O)[C@@H]1C[C@H](OC(=O)C2=Cc3ccccc3C2)C(=O)[C@H]2[C@@]1(C)CC[C@H]1C(=O)O[C@H](c3ccoc3)C[C@]21C [Compound 2, Methyl-(2S,4aR,6aR,7R,9S,10aS,10bR)-9-((1H-indene-2-carbonyl)oxy)-2-(furan-3-yl)-6a,10b-dimethyl-4,10-dioxododecahydro-2H-benzo[f]isochromene-7-carboxylate]",49.7 nM,538 nM,–,853 (456–1600)^[d],–,"fold preference towards KOR (binding affinity, KOR vs MOR) (hKOR [1]): 11 fold; latency to hind paw lick or flutter compared to vehicle (male C57BL/6NHsd mice [5]): significant increase in the latency to paw response; latency to tail withdrawal compared to vehicle (male C57BL/6NHsd mice [6]): Neither salvinorin A, herkinorin, nor compounds 2 or 10 demonstrated significant antinociception; EC50 (hDOR [7]): 2350 nM; distance traveled in the maze compared to vehicle (male C57BL/6NHsd mice [8]; male, C57BL/6NHsd): neither salvinorin A, nor compound 2, altered the distance; time spent in the open arms compared to vehicle (male C57BL/6NHsd mice [8]): significantly increased the amount of time spent on the open arms of the maze; Kd (hDOR [9]): 714 nM; fold higher potency at MOR (vs KOR) (hMOR [4]; from GTPγS EC50 values): 17 fold"
"COC(=O)[C@@H]1C[C@H](OC(=O)C2Cc3ccccc3C2)C(=O)[C@H]2[C@@]1(C)CC[C@H]1C(=O)O[C@H](c3ccoc3)C[C@]21C [Compound 3, Methyl-(2S,4aR,6aR,7R,9S,10aS,10bR)-9-((2,3-dihydro-1H-indene-2-carbonyl)oxy)-2-(furan-3-yl)-6a,10b-dimethyl-4,10-dioxododecahydro-2H-benzo[f]isochromene-7-carboxylate]",1270 nM,3020 nM,3000 nM,3000 (409–22000)^[d],> 10000 nM,–
"COC(=O)[C@@H]1C[C@H](OC(=O)c2nc3ccccc3o2)C(=O)[C@H]2[C@@]1(C)CC[C@H]1C(=O)O[C@H](c3ccoc3)C[C@]21C [Compound 4, (2S,4aR,6aR,7R,9S,10aS,10bR)-2-(furan-3-yl)-7-(methoxycarbonyl)-6a,10b-dimethyl-4,10-dioxododecahydro-2H-benzo[f]isochromen-9-yl benzo[d]oxazole-2-carboxylate]",–,–,–,–,–,"binding affinity towards KOR, in words (hKOR [1]): exhibited no affinity to any of the opioid receptors; binding affinity towards MOR, in words (hMOR [2]): exhibited no affinity to any of the opioid receptors; binding affinity towards DOR, in words (hDOR [9]): exhibited no affinity to any of the opioid receptors"
"COC(=O)[C@@H]1C[C@H](OC(=O)c2n[nH]c3ccccc23)C(=O)[C@H]2[C@@]1(C)CC[C@H]1C(=O)O[C@H](c3ccoc3)C[C@]21C [Compound 5, (2S,4aR,6aR,7R,9S,10aS,10bR)-2-(furan-3-yl)-7-(methoxycarbonyl)-6a,10b-dimethyl-4,10-dioxododecahydro-2H-benzo[f]isochromen-9-yl 1H-indazole-3-carboxylate]",–,208 nM,–,–,> 10000 nM,–
"COC(=O)[C@@H]1C[C@H](OC(=O)c2nc3ccccc3[nH]2)C(=O)[C@H]2[C@@]1(C)CC[C@H]1C(=O)O[C@H](c3ccoc3)C[C@]21C [Compound 6, (2S,4aR,6aR,7R,9S,10aS,10bR)-2-(furan-3-yl)-7-(methoxycarbonyl)-6a,10b-dimethyl-4,10-dioxododecahydro-2H-benzo[f]isochromen-9-yl 1H-benzo[d]imidazole-2-carboxylate]",–,83.2 nM,–,–,> 10000 nM,"binding affinity towards MOR, in words (hMOR [2]): exhibited selective affinity towards MOR"
"COC(=O)[C@@H]1C[C@H](OC(=O)c2cc3c(F)cccc3[nH]2)C(=O)[C@H]2[C@@]1(C)CC[C@H]1C(=O)O[C@H](c3ccoc3)C[C@]21C [Compound 7, (2S,4aR,6aR,7R,9S,10aS,10bR)-2-(furan-3-yl)-7-(methoxycarbonyl)-6a,10b-dimethyl-4,10-dioxododecahydro-2H-benzo[f]isochromen-9-yl 4-fluoro-1H-indole-2-carboxylate]",57.3 nM,13.1 nM,877 nM,877 (564–1360)^[d],211 nM,–
"COC(=O)[C@@H]1C[C@H](OC(=O)c2cc3cc(F)ccc3[nH]2)C(=O)[C@H]2[C@@]1(C)CC[C@H]1C(=O)O[C@H](c3ccoc3)C[C@]21C [Compound 8, (2S,4aR,6aR,7R,9S,10aS,10bR)-2-(furan-3-yl)-7-(methoxycarbonyl)-6a,10b-dimethyl-4,10-dioxododecahydro-2H-benzo[f]isochromen-9-yl 5-fluoro-1H-indole-2-carboxylate]",97.8 nM,–,1110 nM,1110 (441–2790)^[c],–,"binding affinity towards MOR, in words (hMOR [2]): loss of binding affinity to MOR"
"COC(=O)[C@@H]1C[C@H](OC(=O)c2cc3ccc(F)cc3[nH]2)C(=O)[C@H]2[C@@]1(C)CC[C@H]1C(=O)O[C@H](c3ccoc3)C[C@]21C [Compound 9, (2S,4aR,6aR,7R,9S,10aS,10bR)-2-(furan-3-yl)-7-(methoxycarbonyl)-6a,10b-dimethyl-4,10-dioxododecahydro-2H-benzo[f]isochromen-9-yl 6-fluoro-1H-indole-2-carboxylate]",17 nM,39.7 nM,419 nM,419 (240–729)^[c],973 nM,–
"COC(=O)[C@@H]1C[C@H](OC(=O)c2cc3cccc(F)c3[nH]2)C(=O)[C@H]2[C@@]1(C)CC[C@H]1C(=O)O[C@H](c3ccoc3)C[C@]21C [Compound 10, (2S,4aR,6aR,7R,9S,10aS,10bR)-2-(furan-3-yl)-7-(methoxycarbonyl)-6a,10b-dimethyl-4,10-dioxododecahydro-2H-benzo[f]isochromen-9-yl 7-fluoro-1H-indole-2-carboxylate]",53.8 nM,58.4 nM,36.5 nM,36.5 (13.6–98.2)^[d],132 nM,"fold preference towards KOR (binding affinity, KOR vs MOR) (hKOR [1]): equal binding affinity towards KOR and MOR; latency to hind paw lick or flutter compared to vehicle (male C57BL/6NHsd mice [5]): Neither salivinorin A, herkinorin, nor compound 10 were observed to significantly influence the latency to paw response; latency to tail withdrawal compared to vehicle (male C57BL/6NHsd mice [6]): Neither salvinorin A, herkinorin, nor compounds 2 or 10 demonstrated significant antinociception; fold higher potency at KOR (vs MOR) (hKOR [3]): ~ 4 fold; distance traveled in the maze compared to vehicle (male C57BL/6NHsd mice [8]): reduction in the total distance traveled; time spent in the open arms compared to vehicle (male C57BL/6NHsd mice [8]): Neither herkinorin nor compound 10 significantly influenced anxiety-like behavior"
"COC(=O)[C@@H]1C[C@H](OC(=O)c2nc3ccccc3s2)C(=O)[C@H]2[C@@]1(C)CC[C@H]1C(=O)O[C@H](c3ccoc3)C[C@]21C [Compound 11, (2S,4aR,6aR,7R,9S,10aS,10bR)-2-(furan-3-yl)-7-(methoxycarbonyl)-6a,10b-dimethyl-4,10-dioxododecahydro-2H-benzo[f]isochromen-9-yl benzo[d]thiazole-2-carboxylate]",91.7 nM,–,294 nM,294 (179–482)^[d],–,"binding affinity towards KOR, in words (hKOR [1]): exhibited selective affinity towards KOR"
"COC(=O)[C@@H]1C[C@H](OC(=O)c2cc3ccccn3c2)C(=O)[C@H]2[C@@]1(C)CC[C@H]1C(=O)O[C@H](c3ccoc3)C[C@]21C [Compound 12, (2S,4aR,6aR,7R,9S,10aS,10bR)-2-(furan-3-yl)-7-(methoxycarbonyl)-6a,10b-dimethyl-4,10-dioxododecahydro-2H-benzo[f]isochromen-9-yl indolizine-2-carboxylate]",18.4 nM,1390 nM,1560 nM,1560 (213–11500)^[c],200 nM,EC50 (hDOR [7]): 742 nM; Kd (hDOR [9]): 480 nM
"COC(=O)[C@@H]1C[C@H](OC(=O)[C@H]2Cc3ccccc3N2)C(=O)[C@H]2[C@@]1(C)CC[C@H]1C(=O)O[C@H](c3ccoc3)C[C@]21C [Compound 13, (2S,4aR,6aR,7R,9S,10aS,10bR)-2-(furan-3-yl)-7-(methoxycarbonyl)-6a,10b-dimethyl-4,10-dioxododecahydro-2H-benzo[f]isochromen-9-yl (R)-indoline-2-carboxylate]",130 nM,9.04 nM,2260 nM,2260 (1360–3760)^[c],840 nM,"fold preference towards MOR (binding affinity, MOR vs KOR) (hMOR [2]): 14 fold"
"COC(=O)[C@@H]1C[C@H](OC(=O)[C@@H]2Cc3ccccc3N2)C(=O)[C@H]2[C@@]1(C)CC[C@H]1C(=O)O[C@H](c3ccoc3)C[C@]21C [Compound 14, (2S,4aR,6aR,7R,9S,10aS,10bR)-2-(furan-3-yl)-7-(methoxycarbonyl)-6a,10b-dimethyl-4,10-dioxododecahydro-2H-benzo[f]isochromen-9-yl (S)-indoline-2-carboxylate]",32.1 nM,77.9 nM,361 nM,361 (216–602)^[d],> 10000 nM,"fold preference towards KOR (binding affinity, KOR vs MOR) (hKOR [1]): ~ 2 fold"
"CN1CC[C@]23c4c5ccc(O)c4O[C@H]2[C@@H](O)C=C[C@H]3[C@H]1C5 [Morphine, reference compound]",–,–,–,–,–,latency to hind paw lick or flutter compared to vehicle (male C57BL/6NHsd mice [5]): significant increase in the latency to paw response; latency to tail withdrawal compared to vehicle (male C57BL/6NHsd mice [6]): significantly increased the latency to tail withdrawal
